US20090117083A1, “IMMUNOMODULATORY ALKALOIDS” (M N L PHARMA LIMITED, priority 2004, published 2009)
Read-outs that look alike come from different tables or passages of the source.

Columns and labels:
spleen cells = assay: Cytokine modulation in spleen cells (IFN-γ); format: cell-based, BALB/c mice
Protocol: BALB/c male and female mice bred and maintained at the University of Strathclyde under conventional conditions were used at varying age.
Cells suspensions were prepared by using the end of a syringe and grinding the spleen through a wire mesh. The cell suspension was then centrifuged at 1000 rpm for 5 minutes. To remove the erythrocytes, the cell pellet was resuspended in Boyle's solution (Tris 0.17M & Ammonium Chloride 0.16M) and centrifuged again for 5 minutes. The pellet was then washed in medium a further two times, then resuspended in 3 mls medium. A cell count was then carried out.
All spleen cell experiments were carried out in 96-well tissue culture plates. […] Unstimulated wells contained 100 μl of cells and 100 μl of medium. The stimulated wells contained 100 μl of cells plus 50 μl of LPS at 1 μg/ml or 50 μl anti-CD3 at 0.5 μg/ml and 50 μl of medium. The remaining wells contained 100 μl cells, 5 μl of MNLP compound and either 50 μl of anti-CD3 or medium alone.
The appropriate Mabs and standards were used according to the protocol described for IL-12 (described in Example 1, above).

α-D-glucosidase [1] = biological target: T1, α-D-glucosidase (Oryza sativa subsp. japonica, UniProt Q653V7); assay: Glycosidase inhibition: α-D-glucosidase, rice; format: biochemical, rice (Oryza sativa)
T1 construct: purchased Sigma
Protocol: (§1) All enzymes were purchased from Sigma, as were the appropriate p-nitrophenyl substrates. Assays were carried out in microtitre plates. Enzymes were assayed in 0.1M citric acid/0.2M di-sodium hydrogen phosphate (McIlvaine) buffers at the optimum pH for the enzyme. All assays were carried out at 20° C. For screening assays the incubation assay consisted of 10 μl of enzyme solution, 10 μl of inhibitor solution (made up in water) and 50 μl of the appropriate 5 mM p-nitrophenyl substrate (3.57 mM final conc.) made up in McIlvaine buffer at the optimum pH for the enzyme.
(§2) The reactions were stopped with 0.4M glycine (pH 10.4) during the exponential phase of the reaction, which was determined at the beginning of the assay using blanks with water, which were incubated for a range of time periods to measure the reaction rate using 5 mM substrate solution. Endpoint absorbances were read at 405 nm with a Biorad microtitre plate reader (Benchmark). Water was substituted for the inhibitors in the blanks.

Naringinase = assay: Glycosidase inhibition: Naringinase; format: biochemical, Penecillium decumbens; conditions: 1 mg/ml
Protocol: as §1, §2

α-L-fucosidase = biological target: T2, α-L-fucosidase (Bos taurus, UniProt Q2KIM0); assay: Glycosidase inhibition: α-L-fucosidase; format: biochemical, Bovine
T2 construct: purchased Sigma
T2 sequence (Q2KIM0 23-468): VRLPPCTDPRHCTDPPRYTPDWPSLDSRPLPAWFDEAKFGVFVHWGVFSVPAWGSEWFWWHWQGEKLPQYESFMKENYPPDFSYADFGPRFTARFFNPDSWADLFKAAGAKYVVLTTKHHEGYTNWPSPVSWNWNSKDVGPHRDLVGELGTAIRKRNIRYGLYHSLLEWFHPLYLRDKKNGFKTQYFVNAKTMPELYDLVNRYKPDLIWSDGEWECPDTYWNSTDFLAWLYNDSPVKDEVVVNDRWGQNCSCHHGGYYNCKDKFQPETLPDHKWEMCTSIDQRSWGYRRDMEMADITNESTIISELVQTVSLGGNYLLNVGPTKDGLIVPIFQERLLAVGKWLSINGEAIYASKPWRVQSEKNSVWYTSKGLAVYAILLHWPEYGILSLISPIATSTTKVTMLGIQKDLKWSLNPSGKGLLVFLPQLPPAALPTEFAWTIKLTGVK
Protocol: as §1, §2

α-D-glucosidase [2] = assay: Glycosidase inhibition: α-D-glucosidase, Bacillus; format: biochemical, Bacillus stearothermophilus; conditions: 1 mg/ml
Protocol: as §1, §2

B16-F10 tumour cells = assay: Control of lung metastasis in mice (B16-F10); format: in vivo, C57/bl6 mice; conditions: 50 mg/kg s/c on days 2 and 4; lungs on day 14
Protocol: Mice (C57/bl6 under i/p ketamine anaesthesia) were challenged i/v (tail vein) with 5×10^4 B16-F10 tumour cells in a final volume of 100 μl per mouse on day 0. Test compounds (50 mg/kg in 200 μl sterile non-pyrogenic saline) were administered sic (right flank) on days 2 and 4. On day 14 the mice were sacrifices and the lungs dissected and stained in Indian ink solution (150 ml bidistilled water, 30 ml India Ink, 4 drops NH4OH) for 10 minutes then fixed for at least 24 hr in Fakete's solution (90 ml 37% formaldehyde, 900 ml 70% EtOH and 45 ml glacial acetic acid). The metastases in the stained and fixed lungs could then be visualized, counted and photographed.

β-D-glucosidase = assay: Glycosidase inhibition: β-D-glucosidase, almond; format: biochemical, Almonds (Prunus sp.); conditions: 1 mg/ml
Protocol: as §1, §2

α-D-galactosidase = biological target: T3, α-D-galactosidase (Coffea arabica, UniProt Q42656); assay: Glycosidase inhibition: α-D-galactosidase; format: biochemical, Green coffee beans (Coffea sp.)
T3 construct: purchased Sigma
Protocol: as §1, §2

[3] = test system: N-acetyl-β-D-glucosaminidase; assay: Glycosidase inhibition: N-acetyl-β-D-glucosaminidase; format: biochemical, Bovine; conditions: 1 mg/ml
Protocol: as §1, §2

α-D-mannosidase = biological target: T4, α-D-mannosidase (Canavalia ensiformis, UniProt C0HJB3); assay: Glycosidase inhibition: α-D-mannosidase; format: biochemical, Jack beans (Canavalia ensiformis)
T4 construct: purchased Sigma
Protocol: All enzymes were purchased from Sigma, as were the appropriate p-nitrophenyl substrates. Assays were carried out in microtitre plates. Enzymes were assayed in 0.1M citric acid/0.2M di-sodium hydrogen phosphate (McIlvaine) buffers at the optimum pH for the enzyme. All assays were carried out at 20° C.
Endpoint absorbances were read at 405 nm with a Biorad microtitre plate reader (Benchmark). Water was substituted for the inhibitors in the blanks.

α-D-glucosidase [4] = biological target: T5, α-D-glucosidase (Saccharomyces cerevisiae, UniProt P53341); assay: Glycosidase inhibition (p-nitrophenyl substrate): α-D-glucosidase, yeast; format: biochemical, Saccharomyces cerevisiae (Baker's yeast); conditions: 1 mg/ml
T5 construct: purchased Sigma
Protocol: as §1, §2

β-D-galactosidase = assay: Glycosidase inhibition: β-D-galactosidase; format: biochemical, Bovine; conditions: 1 mg/ml
Protocol: as §1, §2

HSV-1 (SC16) = conditions: versus infected untreated group
[5] = 1 mg/ml, read-out: % inhibition, gluc (rice)
[6] = 1 mg/ml, read-out: % inhibition, fucosidase
[7] = read-out: % inhibition, galactosidase
[8] = read-out: % inhibition, mannosidase
[9] = read-out: % inhibition, gluc (yeast)
[10] = read-out: % inhibition, α-gluc (rice)
[11] = read-out: % inhibition, α-mannosidase
[12] = read-out: % inhibition, α-fucosidase
[13] = read-out: % inhibition, α-gluc (yeast)
[14] = 1 mg/ml, read-out: % inhibition, α-galactosidase
[15] = 1 mg/ml, read-out: % inhibition, α-gluc (rice)
[16] = 1 mg/ml, read-out: % inhibition, α-fucosidase

T1 sequence (Q653V7 34-885): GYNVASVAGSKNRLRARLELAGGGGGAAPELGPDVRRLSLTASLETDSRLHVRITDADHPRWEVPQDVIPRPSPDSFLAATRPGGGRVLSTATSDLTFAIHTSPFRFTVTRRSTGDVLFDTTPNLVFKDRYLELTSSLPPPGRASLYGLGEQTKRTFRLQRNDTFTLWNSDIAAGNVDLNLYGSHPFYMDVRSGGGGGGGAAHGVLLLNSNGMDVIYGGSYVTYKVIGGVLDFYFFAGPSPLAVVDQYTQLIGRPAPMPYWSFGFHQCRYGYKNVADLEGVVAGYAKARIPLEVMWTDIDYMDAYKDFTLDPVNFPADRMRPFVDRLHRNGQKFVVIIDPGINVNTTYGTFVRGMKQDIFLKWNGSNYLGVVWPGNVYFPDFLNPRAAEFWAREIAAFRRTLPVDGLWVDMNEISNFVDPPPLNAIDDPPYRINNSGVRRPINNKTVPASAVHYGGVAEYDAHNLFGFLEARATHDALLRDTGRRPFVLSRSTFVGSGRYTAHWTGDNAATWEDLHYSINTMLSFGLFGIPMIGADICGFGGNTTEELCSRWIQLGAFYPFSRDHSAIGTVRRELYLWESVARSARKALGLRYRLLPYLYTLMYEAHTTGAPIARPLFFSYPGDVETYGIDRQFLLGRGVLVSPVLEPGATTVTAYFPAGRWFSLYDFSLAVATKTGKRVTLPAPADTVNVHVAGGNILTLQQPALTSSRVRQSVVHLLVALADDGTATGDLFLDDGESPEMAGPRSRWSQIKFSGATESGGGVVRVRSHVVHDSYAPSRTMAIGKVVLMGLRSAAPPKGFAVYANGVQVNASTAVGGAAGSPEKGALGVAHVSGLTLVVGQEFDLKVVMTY
T4 sequence (C0HJB3 whole entry): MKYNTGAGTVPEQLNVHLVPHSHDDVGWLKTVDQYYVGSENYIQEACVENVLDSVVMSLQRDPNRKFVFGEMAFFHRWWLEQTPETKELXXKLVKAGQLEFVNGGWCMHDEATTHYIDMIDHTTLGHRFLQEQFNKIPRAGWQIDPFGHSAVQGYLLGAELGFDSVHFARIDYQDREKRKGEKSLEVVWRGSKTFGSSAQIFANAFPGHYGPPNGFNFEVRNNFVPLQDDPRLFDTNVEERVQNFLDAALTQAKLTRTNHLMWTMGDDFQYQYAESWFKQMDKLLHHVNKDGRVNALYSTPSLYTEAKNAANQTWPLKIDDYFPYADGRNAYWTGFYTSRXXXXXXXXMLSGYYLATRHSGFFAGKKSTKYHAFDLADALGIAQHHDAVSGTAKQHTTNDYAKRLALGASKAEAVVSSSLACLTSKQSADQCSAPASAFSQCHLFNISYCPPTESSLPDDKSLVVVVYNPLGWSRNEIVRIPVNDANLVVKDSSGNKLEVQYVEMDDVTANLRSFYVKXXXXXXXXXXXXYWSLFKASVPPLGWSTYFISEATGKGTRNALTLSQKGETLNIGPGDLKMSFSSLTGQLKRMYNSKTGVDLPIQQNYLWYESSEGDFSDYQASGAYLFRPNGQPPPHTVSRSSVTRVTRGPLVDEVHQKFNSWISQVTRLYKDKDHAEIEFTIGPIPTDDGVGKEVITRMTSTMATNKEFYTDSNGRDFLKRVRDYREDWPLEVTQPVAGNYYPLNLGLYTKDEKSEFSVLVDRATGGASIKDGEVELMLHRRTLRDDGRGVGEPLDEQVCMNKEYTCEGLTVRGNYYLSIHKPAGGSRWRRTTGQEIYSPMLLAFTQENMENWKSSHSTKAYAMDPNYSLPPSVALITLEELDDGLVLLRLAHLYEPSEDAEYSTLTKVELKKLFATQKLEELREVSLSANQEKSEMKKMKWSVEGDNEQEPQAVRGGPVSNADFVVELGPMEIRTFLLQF
T3 sequence (Q42656 16-378): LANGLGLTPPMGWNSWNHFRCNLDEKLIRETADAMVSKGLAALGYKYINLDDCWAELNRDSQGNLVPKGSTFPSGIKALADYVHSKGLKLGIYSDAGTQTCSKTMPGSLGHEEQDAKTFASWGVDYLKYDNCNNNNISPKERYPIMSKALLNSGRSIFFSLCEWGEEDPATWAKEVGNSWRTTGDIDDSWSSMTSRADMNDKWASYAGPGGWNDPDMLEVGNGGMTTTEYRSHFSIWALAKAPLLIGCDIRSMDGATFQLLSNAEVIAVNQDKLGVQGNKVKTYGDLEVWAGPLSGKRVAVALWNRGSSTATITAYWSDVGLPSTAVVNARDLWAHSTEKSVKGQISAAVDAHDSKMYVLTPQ
T5 sequence (P53341 whole entry): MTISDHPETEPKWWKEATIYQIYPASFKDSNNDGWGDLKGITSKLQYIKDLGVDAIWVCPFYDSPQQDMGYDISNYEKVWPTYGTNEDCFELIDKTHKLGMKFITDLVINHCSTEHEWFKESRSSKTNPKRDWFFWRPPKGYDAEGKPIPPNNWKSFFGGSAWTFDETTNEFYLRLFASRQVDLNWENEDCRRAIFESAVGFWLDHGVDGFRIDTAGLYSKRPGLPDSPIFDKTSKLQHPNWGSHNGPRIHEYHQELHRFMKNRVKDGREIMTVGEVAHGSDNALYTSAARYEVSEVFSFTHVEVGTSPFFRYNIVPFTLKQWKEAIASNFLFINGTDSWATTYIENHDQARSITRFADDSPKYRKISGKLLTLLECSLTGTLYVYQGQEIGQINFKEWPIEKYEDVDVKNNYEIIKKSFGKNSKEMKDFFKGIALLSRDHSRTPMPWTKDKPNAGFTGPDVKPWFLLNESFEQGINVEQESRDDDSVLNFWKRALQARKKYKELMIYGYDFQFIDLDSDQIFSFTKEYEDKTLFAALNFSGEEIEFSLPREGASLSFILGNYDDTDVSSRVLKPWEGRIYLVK

SMILES	inhibition at 1000 µg/mL (α-D-glucosidase [1]; [5]) [%]	% inhibition, Naringinase (Naringinase) [%]	% inhibition, gluc (Bacillus) (α-D-glucosidase [2]) [%]	% inhibition, glucosidase (β-D-glucosidase) [%]	% inhibition, N-acetyl-β-gluc [3] [%]	inhibition at 1000 µg/mL (α-D-mannosidase; [11]) [%]	% inhibition, α-gluc (Bacillus) (α-D-glucosidase [2]) [%]	% inhibition, β-glucosidase (β-D-glucosidase) [%]	inhibition at 1000 µg/mL (α-D-glucosidase [4]; [13]) [%]	inhibition at 1000 µg/mL (α-D-galactosidase; [14]) [%]	% inhibition, β-galactosidase (β-D-galactosidase) [%]	further results
OC[C@H]1NC[C@H](O)[C@@H](O)[C@@H]1O [1-Deoxynojirimycin (DNJ) (21), 1-Deoxynojirimycin]	–	–	–	–	–	–	–	–	–	–	–	IFN-γ secretion/production in splenocytes (spleen cells): inhibited
OC[C@H]1[C@@H](O)[C@H](O)[C@H]2[C@H](O)[C@@H](O)CN21 [3-epi-casuarine (14), 3-epi-casuarine]	13	21	12	56	−1	–	–	–	–	–	–	inhibition at 1000 µg/mL (α-L-fucosidase; [6]): -2%; Metastatic morphology (B16-F10 tumour cells): Metastasis restricted to apical tip of lung; inhibition at 1000 µg/mL (α-D-galactosidase; [7]): 4%
OC[C@@H]1[C@@H](O)[C@H](O)[C@H]2[C@@H](O)[C@@H](O)CN21 [7-epi-casuarine (11), 7-epi-casuarine]	73	−4	5	30	–	–	–	–	–	–	–	inhibition at 1000 µg/mL (α-L-fucosidase; [6]): 25%; inhibition at 1000 µg/mL (α-D-galactosidase; [7]): 1%
OC[C@H]1[C@@H](O)[C@H](O)[C@H]2[C@@H](O)[C@H](O)CN21 [Compound 12, 3,6,7-triepi-casuarine]	0	0	9	6	19	–	–	–	–	–	–	inhibition at 1000 µg/mL (α-D-mannosidase; [8]): 8%; inhibition at 1000 µg/mL (α-L-fucosidase; [6]): -11%; inhibition at 1000 µg/mL (α-D-glucosidase [4]; [9]): 2%; inhibition at 1000 µg/mL (α-D-galactosidase; [7]): 2%
OC[C@H]1[C@@H](O)[C@H](O)[C@@H]2[C@@H](O)[C@H](O)CN21 [Compound 21, 3,6,7,7a-tetraepi-casuarine]	46	5	−2	44	27	–	–	–	–	–	–	inhibition at 1000 µg/mL (α-D-mannosidase; [8]): 1%; inhibition at 1000 µg/mL (α-D-galactosidase; [7]): -3%
OC[C@H]1[C@@H](O)[C@H](O)[C@@H]2[C@@H](O)[C@@H](O)CN21 [Compound 22, 3,7,7a-triepi-casuarine]	0	10	87	52	–	–	–	–	–	–	–	inhibition at 1000 µg/mL (α-D-glucosidase [4]; [9]): 29%
O[C@@H]1[C@@H]2[C@@H](O)[C@H](O)[C@H](O)CN2C[C@H]1O [Compound 35, 2-α-hydroxy-6-epi-castanospermine]	–	0	–	–	20	11	−12	−3	-5	-5	−1	inhibition at 1000 µg/mL (α-D-glucosidase [1]; [10]): 61%; inhibition at 1000 µg/mL (α-L-fucosidase; [12]): 0%
OC[C@H]1N[C@H](c2ccc(O)cc2)[C@@H](O)[C@@H]1O [Compound 36, PLB1]	–	41	–	–	30	42	62	52	19	43	52	inhibition at 1000 µg/mL (α-D-glucosidase [1]; [15]): 54%; inhibition at 1000 µg/mL (α-L-fucosidase; [16]): 13%
O[C@@H]1[C@@H]2[C@@H](O)[C@H](O)[C@@H](O)CN2C[C@@H]1O [Compound 44, 2-β-hydroxycastanospermine]	–	6	–	–	13	1	–	20	8	-4	−1	–
OCCN1C[C@@H](O)[C@H](O)[C@H]1CO [Compound 55, N-hydroxyethyl-1,4-dideoxy-1,4-imino-D-arabinitol]	–	44	–	–	6	5	15	44	-3	4	13	inhibition at 1000 µg/mL (α-D-glucosidase [1]; [15]): 71%; inhibition at 1000 µg/mL (α-L-fucosidase; [16]): -7%
O[C@@H]1[C@@H]2[C@@H](O)[C@H](O)[C@@H](O)CN2C[C@H]1O [Compound 64, 2-α-hydroxycastanospermine]	–	76	–	–	21	21	−15	−1	-6	-9	−3	inhibition at 1000 µg/mL (α-D-glucosidase [1]; [10]): 12%; inhibition at 1000 µg/mL (α-L-fucosidase; [12]): 4%
COc1cc([C@H]2N[C@H](CO)[C@@H](O)[C@@H]2O)ccc1O [Compound 65, PLB2]	–	4	–	–	0	-16	37	25	37	4	18	inhibition at 1000 µg/mL (α-D-glucosidase [1]; [15]): 0%; inhibition at 1000 µg/mL (α-L-fucosidase; [16]): -4%
OCC1N[C@H](CO)[C@@H](O)[C@@H]1O (some centres unmarked) [DMDP, 2,6-dihydroxymethyl-3,4-dihydroxypyrrolidine]	–	0	–	–	25	25	85	81	74	-3	71	inhibition at 1000 µg/mL (α-D-glucosidase [1]; [15]): 91%; inhibition at 1000 µg/mL (α-L-fucosidase; [16]): -4%
CC(=O)OCC(CCn1cnc2cnc(N)nc21)COC(C)=O [famciclovir, reference compound]	–	–	–	–	–	–	–	–	–	–	–	ear thickness response (HSV-1 (SC16)): almost completely negated
